Source: ChEMBL document CHEMBL6096632, “Synthesis and evaluation of N-arylindazole-3-carboxamide derivatives as novel antiviral agents against SARS-CoV-2” (Bioorg Med Chem Lett, 2024)

Assays:
SARS-CoV-2 = assay: Antiviral activity against SARS-CoV-2 expressing nucleocapsid protein infected in African green monkey Vero cells assessed as inhibition of viral growth by Hoechst 33342 staining based immunofluorescence analysis; format: functional, organism-based; details: Severe acute respiratory syndrome coronavirus 2, Vero
[1] = Cytotoxicity against African green monkey Vero cells incubated for 24 hrs by WST reagent based EZ-cytox assay; format: toxicity, cell-based; details: chlorocebus sabaeus
[2] = Selectivity index, ratio of CC50 for African green monkey Vero cells to EC50 for antiviral activity against SARS-CoV-2 expressing nucleocapsid protein infected in African green monkey Vero cells; format: toxicity, cell-based; details: read-out: Ratio CC50/EC50
[3] = test system: Middle East respiratory syndrome-related coronavirus; assay: Antiviral activity against MERS-CoV expressing spike protein infected in African green monkey Vero cells assessed as inhibition of viral growth by Hoechst 33342 staining based immunofluorescence analysis; format: functional, organism-based
CYP2D6 = CYP2D6 (Homo sapiens, UniProt P10635); assay: Inhibition of CYP2D6 in human liver microsomes using dextromethorphan as substrate at 10 uM preincubated for 5 mins followed by substrate and NADPH addition and measured after 20 mins by HPLC-MS/MS analysis; format: ADME, Microsome; details: probe dextromethorphan, time 25 min
Sequence of CYP2D6 (P10635 whole entry): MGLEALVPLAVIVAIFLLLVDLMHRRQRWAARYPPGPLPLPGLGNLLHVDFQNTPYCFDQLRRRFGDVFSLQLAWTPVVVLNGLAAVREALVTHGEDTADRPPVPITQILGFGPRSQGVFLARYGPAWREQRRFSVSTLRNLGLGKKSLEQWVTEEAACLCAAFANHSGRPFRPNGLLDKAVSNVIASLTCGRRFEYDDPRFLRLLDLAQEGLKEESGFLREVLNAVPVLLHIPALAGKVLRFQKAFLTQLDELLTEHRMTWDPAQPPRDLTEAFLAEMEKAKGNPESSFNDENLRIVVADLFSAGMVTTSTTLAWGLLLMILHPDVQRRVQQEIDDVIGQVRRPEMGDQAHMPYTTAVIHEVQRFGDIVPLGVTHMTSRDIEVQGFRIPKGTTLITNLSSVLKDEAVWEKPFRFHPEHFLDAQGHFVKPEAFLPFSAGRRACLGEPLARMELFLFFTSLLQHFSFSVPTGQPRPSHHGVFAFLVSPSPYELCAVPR

[4] = Cytotoxicity against HFL1 cells incubated for 24 hrs by WST reagent based EZ-cytox assay; format: toxicity, cell-based; details: human
[5] = Cytotoxicity against mouse NIH3T3 cells incubated for 24 hrs by WST reagent based EZ-cytox assay; format: toxicity, cell-based
hERG (KCNH2) = hERG (KCNH2) (Homo sapiens, UniProt Q12809); assay: Inhibition of human ERG at 10 uM by fluorescence polarization relative to control; format: toxicity
Sequence of hERG (KCNH2) (Q12809 whole entry): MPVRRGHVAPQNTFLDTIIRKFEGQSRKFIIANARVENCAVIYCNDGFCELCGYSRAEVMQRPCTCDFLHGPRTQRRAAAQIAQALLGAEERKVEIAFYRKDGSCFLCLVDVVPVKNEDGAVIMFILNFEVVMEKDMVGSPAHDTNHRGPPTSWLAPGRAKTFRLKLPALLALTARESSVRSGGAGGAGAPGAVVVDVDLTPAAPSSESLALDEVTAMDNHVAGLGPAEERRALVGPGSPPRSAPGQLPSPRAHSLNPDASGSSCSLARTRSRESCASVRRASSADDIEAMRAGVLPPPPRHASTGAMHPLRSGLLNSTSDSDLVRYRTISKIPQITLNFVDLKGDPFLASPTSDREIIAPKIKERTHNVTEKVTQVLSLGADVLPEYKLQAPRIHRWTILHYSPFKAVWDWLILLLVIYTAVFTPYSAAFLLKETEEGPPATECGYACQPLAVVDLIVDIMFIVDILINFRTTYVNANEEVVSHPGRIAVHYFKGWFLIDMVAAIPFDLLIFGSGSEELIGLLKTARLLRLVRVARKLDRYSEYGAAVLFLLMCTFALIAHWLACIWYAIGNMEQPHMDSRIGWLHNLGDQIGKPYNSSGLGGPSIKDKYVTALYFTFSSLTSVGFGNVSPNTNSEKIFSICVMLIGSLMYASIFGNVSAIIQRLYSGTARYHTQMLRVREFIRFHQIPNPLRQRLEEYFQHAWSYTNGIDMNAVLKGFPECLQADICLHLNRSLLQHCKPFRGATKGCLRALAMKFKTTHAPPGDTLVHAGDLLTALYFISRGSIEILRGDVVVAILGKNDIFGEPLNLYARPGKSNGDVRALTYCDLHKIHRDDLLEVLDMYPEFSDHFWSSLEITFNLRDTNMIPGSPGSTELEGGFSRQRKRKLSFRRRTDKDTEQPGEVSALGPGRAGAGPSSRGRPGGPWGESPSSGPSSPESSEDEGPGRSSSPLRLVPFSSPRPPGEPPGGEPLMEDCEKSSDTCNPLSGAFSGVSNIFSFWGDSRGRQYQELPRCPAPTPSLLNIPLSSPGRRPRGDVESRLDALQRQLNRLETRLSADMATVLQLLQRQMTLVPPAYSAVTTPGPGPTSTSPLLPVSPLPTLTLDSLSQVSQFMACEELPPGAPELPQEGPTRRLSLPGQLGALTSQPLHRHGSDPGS

[6] = Cytotoxicity against CHO-K1 cells incubated for 24 hrs by WST reagent based EZ-cytox assay; format: toxicity, cell-based, Cricetulus griseus; details: chinese hamster
[7] = Metabolic stability in human liver microsomes assessed as parent compound remaining preincubated for 10 mins followed by NADPH addition and measured after 30 mins by HPLC-MS/MS analysis; format: ADME, Microsome; details: time 40 min, read-out: Stability
CYP3A4 = CYP3A4 (Homo sapiens, UniProt P08684); assay: Inhibition of CYP3A4 in human liver microsomes using […] as substrate at 10 uM preincubated for 5 mins followed by substrate and NADPH addition and measured after 20 mins by HPLC-MS/MS analysis; format: ADME, Microsome; details: probe sorafenib, time 25 min
Sequence of CYP3A4 (P08684 whole entry): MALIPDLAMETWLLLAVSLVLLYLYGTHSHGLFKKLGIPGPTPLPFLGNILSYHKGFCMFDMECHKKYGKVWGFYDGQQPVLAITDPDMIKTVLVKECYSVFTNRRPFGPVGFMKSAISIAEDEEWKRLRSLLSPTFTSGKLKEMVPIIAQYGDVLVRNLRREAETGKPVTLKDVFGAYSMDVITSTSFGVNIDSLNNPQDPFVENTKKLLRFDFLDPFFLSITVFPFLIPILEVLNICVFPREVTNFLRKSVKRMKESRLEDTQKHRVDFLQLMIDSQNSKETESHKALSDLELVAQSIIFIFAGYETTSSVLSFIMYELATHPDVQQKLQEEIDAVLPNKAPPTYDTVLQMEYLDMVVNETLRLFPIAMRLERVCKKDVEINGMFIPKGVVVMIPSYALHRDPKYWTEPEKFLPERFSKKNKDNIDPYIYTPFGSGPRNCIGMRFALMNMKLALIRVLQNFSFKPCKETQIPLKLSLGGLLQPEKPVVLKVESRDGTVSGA

CYP2C19 = CYP2C19 (Homo sapiens, UniProt P33261); assay: Inhibition of CYP2C19 in human liver microsomes using S-mephenytoin as substrate at 10 uM preincubated for 5 mins followed by substrate and NADPH addition and measured after 20 mins by HPLC-MS/MS analysis; format: ADME, Microsome; details: probe S-mephenytoin, time 25 min
Sequence of CYP2C19 (P33261 whole entry): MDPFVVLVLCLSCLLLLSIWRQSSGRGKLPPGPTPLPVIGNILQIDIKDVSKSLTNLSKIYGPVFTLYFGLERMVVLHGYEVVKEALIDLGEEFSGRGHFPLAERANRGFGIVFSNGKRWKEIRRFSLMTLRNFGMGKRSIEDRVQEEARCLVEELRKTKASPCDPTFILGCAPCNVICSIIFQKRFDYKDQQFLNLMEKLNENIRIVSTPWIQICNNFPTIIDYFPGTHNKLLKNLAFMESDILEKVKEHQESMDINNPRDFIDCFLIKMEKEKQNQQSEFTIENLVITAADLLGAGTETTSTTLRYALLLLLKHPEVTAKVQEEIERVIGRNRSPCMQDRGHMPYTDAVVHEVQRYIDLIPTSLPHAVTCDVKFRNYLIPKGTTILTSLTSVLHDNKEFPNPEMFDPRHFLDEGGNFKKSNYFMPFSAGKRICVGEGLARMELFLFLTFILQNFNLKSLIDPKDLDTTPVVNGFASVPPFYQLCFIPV

[8] = Metabolic stability in mouse liver microsomes assessed as parent compound remaining preincubated for 10 mins followed by NADPH addition and measured after 30 mins by HPLC-MS/MS analysis; format: ADME, Microsome; details: time 40 min, read-out: Stability
[9] = Cytotoxicity against mouse L929 cells incubated for 24 hrs by WST reagent based EZ-cytox assay; format: toxicity, cell-based
CYP1A2 = target: T1, CYP1A2 (Homo sapiens, UniProt P05177); assay: Inhibition of CYP1A2 in human liver microsomes using phenacetin as substrate at 10 uM preincubated for 5 mins followed by substrate and NADPH addition and measured after 20 mins by HPLC-MS/MS analysis; format: ADME, Microsome; details: probe phenacetin, time 25 min
T1 sequence (P05177 whole entry): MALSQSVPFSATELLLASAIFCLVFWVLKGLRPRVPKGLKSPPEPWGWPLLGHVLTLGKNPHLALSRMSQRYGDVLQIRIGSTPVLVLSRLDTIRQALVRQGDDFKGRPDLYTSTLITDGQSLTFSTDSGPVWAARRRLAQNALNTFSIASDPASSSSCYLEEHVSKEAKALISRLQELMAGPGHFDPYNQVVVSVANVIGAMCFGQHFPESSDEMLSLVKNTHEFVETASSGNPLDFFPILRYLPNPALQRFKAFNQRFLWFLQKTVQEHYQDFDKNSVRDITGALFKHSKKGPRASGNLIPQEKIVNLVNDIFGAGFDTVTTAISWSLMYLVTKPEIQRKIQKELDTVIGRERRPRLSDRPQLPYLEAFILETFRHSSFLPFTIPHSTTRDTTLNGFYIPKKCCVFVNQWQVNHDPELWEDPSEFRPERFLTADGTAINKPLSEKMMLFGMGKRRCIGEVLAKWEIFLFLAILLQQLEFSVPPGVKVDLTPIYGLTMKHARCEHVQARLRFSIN

CYP2C9 = CYP2C9 (Homo sapiens, UniProt P11712); assay: Inhibition of CYP2C9 in human liver microsomes using tolbutamide as substrate at 10 uM preincubated for 5 mins followed by substrate and NADPH addition and measured after 20 mins by HPLC-MS/MS analysis; format: ADME, Microsome; details: probe tolbutamide, time 25 min
Sequence of CYP2C9 (P11712 whole entry): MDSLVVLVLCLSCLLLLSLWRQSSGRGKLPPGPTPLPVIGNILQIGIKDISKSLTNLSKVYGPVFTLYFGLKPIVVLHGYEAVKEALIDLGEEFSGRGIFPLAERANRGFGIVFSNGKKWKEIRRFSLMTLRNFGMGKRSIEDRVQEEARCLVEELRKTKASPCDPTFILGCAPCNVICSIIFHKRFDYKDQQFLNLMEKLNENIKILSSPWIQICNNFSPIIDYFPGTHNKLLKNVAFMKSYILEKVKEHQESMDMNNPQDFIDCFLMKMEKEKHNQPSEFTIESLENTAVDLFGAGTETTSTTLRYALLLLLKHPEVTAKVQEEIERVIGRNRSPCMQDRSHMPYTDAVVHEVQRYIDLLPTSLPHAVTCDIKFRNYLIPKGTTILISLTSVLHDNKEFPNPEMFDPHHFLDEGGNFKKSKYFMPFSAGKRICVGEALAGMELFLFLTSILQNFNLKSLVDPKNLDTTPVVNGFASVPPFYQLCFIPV

Structure (SMILES)	EC50 (SARS-CoV-2)	CC50 at 24 h [1]	selectivity ratio [2]	also measured
CCCCNC(=O)c1n[nH]c2ccc(Cl)cc12	> 25 µM	> 25 µM	1	–
O=C(Nc1cccc(C(F)(F)F)c1)c1n[nH]c2ccc(Cl)cc12	2.8 µM	> 25 µM	> 8.8	–
O=C(NC1CCCCC1)c1n[nH]c2ccc(Cl)cc12	> 25 µM	> 25 µM	1	–
O=C(Nc1cc(Cl)cc(Cl)c1)c1n[nH]c2cc(F)ccc12	1.2 µM	> 25 µM	> 21.4	–
O=C(Nc1cccc([N+](=O)[O-])c1)c1n[nH]c2ccc(Cl)cc12	> 25 µM	> 25 µM	1	–
O=C(Nc1ccc(Cl)cc1)c1n[nH]c2ccc(Cl)cc12	> 25 µM	> 25 µM	1	–
O=C(Nc1ccccc1Cl)c1n[nH]c2ccc(Cl)cc12	> 25 µM	> 25 µM	1	–
O=C(Nc1cc(Cl)cc(Cl)c1)c1n[nH]c2cc(Cl)ccc12	> 25 µM	> 25 µM	1	–
O=C(Nc1cc(Cl)cc(Cl)c1)c1n[nH]c2ccccc12	> 25 µM	> 25 µM	1	EC50 [3]: 1.7 µM
O=C(Nc1ccccc1F)c1n[nH]c2ccc(Cl)cc12	> 25 µM	> 25 µM	1	–
O=C(Nc1ccc(F)cc1)c1n[nH]c2ccc(Cl)cc12	> 25 µM	> 25 µM	1	–
O=C(Nc1cccc(OC(F)(F)F)c1)c1n[nH]c2ccc(Cl)cc12	5.5 µM	> 25 µM	> 4.6	–
CCC(CC)COC(=O)[C@H](C)N[P@](=O)(OC[C@H]1O[C@@](C#N)(c2ccc3c(N)ncnn23)[C@H](O)[C@@H]1O)Oc1ccccc1	–	> 25 µM	–	–
N#Cc1cccc(NC(=O)c2n[nH]c3ccc(Cl)cc23)c1	1.8 µM	> 25 µM	> 13.7	–
Cc1cc(C)cc(NC(=O)c2n[nH]c3ccc(Cl)cc23)c1	2.3 µM	> 25 µM	> 11.1	–
O=C(Nc1cccc(F)c1)c1n[nH]c2ccc(Cl)cc12	> 25 µM	> 25 µM	1	–
Cc1cccc(NC(=O)c2n[nH]c3ccc(Cl)cc23)c1	> 25 µM	> 25 µM	1	–
N#Cc1ccc(NC(=O)c2n[nH]c3ccc(Cl)cc23)cc1	> 25 µM	> 25 µM	1	–
O=C(Nc1cc(Cl)cc(Cl)c1)c1n[nH]c2ccc(F)cc12	> 25 µM	> 25 µM	1	–
O=C(Nc1cc(Cl)cc(Cl)c1)c1n[nH]c2ccc(Cl)cc12	0.69 µM	> 20 µM	> 36	inhibition at 20 min, 10 µM (CYP2D6): 1%; CC50 at 24 h [4]: > 100 µM; CC50 at 24 h [5]: > 100 µM; inhibition at 10 µM (hERG (KCNH2)): < 1%; CC50 at 24 h [6]: > 100 µM; remaining at 0.5 h [7]: 97%; inhibition at 20 min, 10 µM (CYP3A4): 54%; inhibition at 20 min, 10 µM (CYP2C19): 8%; remaining at 0.5 h [8]: 48%; CC50 at 24 h [9]: > 100 µM; inhibition at 20 min, 10 µM (CYP1A2): 11%; inhibition at 20 min, 10 µM (CYP2C9): 14%
N#Cc1ccccc1NC(=O)c1n[nH]c2ccc(Cl)cc12	> 25 µM	> 25 µM	1	–
